# Tested on: LG0567-F671-PDC complex spheroids viability
# Assay: Anticancer human tumor LG0567-F671-PDC patient-derived lung adenocarcinoma cell line growth inhibition [RAS]
# Details: for IC50: curve of first compound; for viability, T/C: stronger effect = lower value
# How it was run: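 Agents were tested in combination matrices in half-log decrements from a top concentration at or near clinical Cmax (10 microM if undetermined). Targets were multi-cell spheroids of tumour lines plus HUVEC and MSC stromal cells.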
# 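Also: spheroids exposed to compound for seven days before readout.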
# 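For IC50 in this document: luminescence signal used as a proxy for viable cells.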
compound,measurement,setting,value
CC1(C)CCC(Nc2ncc(C(F)(F)F)c(-c3c[nH]c4c(P(C)(C)=O)c(C#N)ccc34)n2)CN1 (centres undefined) + CCn1c(-c2cccnc2C(C)OC)c2c3cc(ccc31)N1CCOC(CC(NC(=O)C(C(C)C)N(C)C(=O)C3(F)CCN(C(=O)C#CC(C)(C)N(C)C)CC3)C(=O)N3CCCC(N3)C(=O)OCC(C)(C)C2)C1,IC50,second compound 0.000949 µM,< 0.949 nM
same,IC50,second compound 0.003 µM,< 0.949 nM
same,IC50,second compound 0.00949 µM,< 0.949 nM
same,IC50,second compound 0.03 µM,< 0.949 nM
same,IC50,second compound 0.0949 µM,< 0.949 nM
same,IC50,second compound 0.3 µM,< 0.949 nM
same,"viability, T/C","second compound 0.000949 µM, first compound 0.000949 µM",12.7%
same,"viability, T/C","second compound 0.000949 µM, first compound 0.003 µM",12.4%
same,"viability, T/C","second compound 0.000949 µM, first compound 0.00949 µM",13.2%
same,"viability, T/C","second compound 0.000949 µM, first compound 0.03 µM",13.5%
same,"viability, T/C","second compound 0.000949 µM, first compound 0.0949 µM",14.6%
same,"viability, T/C","second compound 0.000949 µM, first compound 0.3 µM",14.8%
same,"viability, T/C","second compound 0.003 µM, first compound 0.000949 µM",12.1%
same,"viability, T/C","second compound 0.003 µM, first compound 0.003 µM",13.2%
same,"viability, T/C","second compound 0.003 µM, first compound 0.00949 µM",12.7%
same,"viability, T/C","second compound 0.003 µM, first compound 0.03 µM",12.8%
same,"viability, T/C","second compound 0.003 µM, first compound 0.0949 µM",15.4%
same,"viability, T/C","second compound 0.003 µM, first compound 0.3 µM",14.4%
same,"viability, T/C","second compound 0.00949 µM, first compound 0.000949 µM",10.9%
same,"viability, T/C","second compound 0.00949 µM, first compound 0.003 µM",11.9%
same,"viability, T/C","second compound 0.00949 µM, first compound 0.00949 µM",12.1%
same,"viability, T/C","second compound 0.00949 µM, first compound 0.03 µM",13.2%
same,"viability, T/C","second compound 0.00949 µM, first compound 0.0949 µM",14%
same,"viability, T/C","second compound 0.00949 µM, first compound 0.3 µM",15.2%
same,"viability, T/C","second compound 0.03 µM, first compound 0.000949 µM",10.8%
same,"viability, T/C","second compound 0.03 µM, first compound 0.003 µM",12.1%
same,"viability, T/C","second compound 0.03 µM, first compound 0.00949 µM",12.3%
same,"viability, T/C","second compound 0.03 µM, first compound 0.03 µM",12.8%
same,"viability, T/C","second compound 0.03 µM, first compound 0.0949 µM",13.3%
same,"viability, T/C","second compound 0.03 µM, first compound 0.3 µM",13.2%
same,"viability, T/C","second compound 0.0949 µM, first compound 0.000949 µM",10.3%
same,"viability, T/C","second compound 0.0949 µM, first compound 0.003 µM",9.49%
same,"viability, T/C","second compound 0.0949 µM, first compound 0.00949 µM",11.1%
same,"viability, T/C","second compound 0.0949 µM, first compound 0.03 µM",10.3%
same,"viability, T/C","second compound 0.0949 µM, first compound 0.0949 µM",11.1%
same,"viability, T/C","second compound 0.0949 µM, first compound 0.3 µM",10.7%
same,"viability, T/C","second compound 0.3 µM, first compound 0.000949 µM",7.95%
same,"viability, T/C","second compound 0.3 µM, first compound 0.003 µM",7.87%
same,"viability, T/C","second compound 0.3 µM, first compound 0.00949 µM",7.86%
same,"viability, T/C","second compound 0.3 µM, first compound 0.03 µM",8.99%
same,"viability, T/C","second compound 0.3 µM, first compound 0.0949 µM",9.92%
same,"viability, T/C","second compound 0.3 µM, first compound 0.3 µM",10.7%
CCN1CCN(Cc2ccc(Nc3ncc(F)c(-c4cc(F)c5nc(C)n(C(C)C)c5c4)n3)nc2)CC1 + C=CC(=O)N1CCN(c2nc(OCC3CCCN3C)nc3c(F)c(-c4nc(N)cc(C)c4C(F)(F)F)c(Cl)cc23)C(C)C1,IC50,second compound 0.00316 µM,< 3.16 nM
same,IC50,second compound 0.01 µM,< 3.16 nM
same,IC50,second compound 0.0316 µM,< 3.16 nM
same,IC50,second compound 0.1 µM,< 3.16 nM
same,IC50,second compound 0.316 µM,< 3.16 nM
same,IC50,second compound 1 µM,< 3.16 nM
same,"viability, T/C","second compound 0.00316 µM, first compound 0.00316 µM",16.6%
same,"viability, T/C","second compound 0.00316 µM, first compound 0.01 µM",14.9%
same,"viability, T/C","second compound 0.00316 µM, first compound 0.0316 µM",13.7%
same,"viability, T/C","second compound 0.00316 µM, first compound 0.1 µM",14.2%
same,"viability, T/C","second compound 0.00316 µM, first compound 0.316 µM",16.6%
same,"viability, T/C","second compound 0.00316 µM, first compound 1 µM",22%
same,"viability, T/C","second compound 0.01 µM, first compound 0.00316 µM",13.5%
same,"viability, T/C","second compound 0.01 µM, first compound 0.01 µM",14.1%
same,"viability, T/C","second compound 0.01 µM, first compound 0.0316 µM",14.4%
same,"viability, T/C","second compound 0.01 µM, first compound 0.1 µM",11.8%
same,"viability, T/C","second compound 0.01 µM, first compound 0.316 µM",14.9%
same,"viability, T/C","second compound 0.01 µM, first compound 1 µM",20.2%
same,"viability, T/C","second compound 0.0316 µM, first compound 0.00316 µM",14.8%
same,"viability, T/C","second compound 0.0316 µM, first compound 0.01 µM",13.1%
same,"viability, T/C","second compound 0.0316 µM, first compound 0.0316 µM",11.7%
same,"viability, T/C","second compound 0.0316 µM, first compound 0.1 µM",12.4%
same,"viability, T/C","second compound 0.0316 µM, first compound 0.316 µM",14.3%
same,"viability, T/C","second compound 0.0316 µM, first compound 1 µM",21.2%
same,"viability, T/C","second compound 0.1 µM, first compound 0.00316 µM",11.7%
same,"viability, T/C","second compound 0.1 µM, first compound 0.01 µM",11.5%
same,"viability, T/C","second compound 0.1 µM, first compound 0.0316 µM",12.4%
same,"viability, T/C","second compound 0.1 µM, first compound 0.1 µM",11.5%
same,"viability, T/C","second compound 0.1 µM, first compound 0.316 µM",15%
same,"viability, T/C","second compound 0.1 µM, first compound 1 µM",18.1%
same,"viability, T/C","second compound 0.316 µM, first compound 0.00316 µM",12.7%
same,"viability, T/C","second compound 0.316 µM, first compound 0.01 µM",13.1%
same,"viability, T/C","second compound 0.316 µM, first compound 0.0316 µM",11.9%
same,"viability, T/C","second compound 0.316 µM, first compound 0.1 µM",11.3%
same,"viability, T/C","second compound 0.316 µM, first compound 0.316 µM",13.8%
same,"viability, T/C","second compound 0.316 µM, first compound 1 µM",17.2%
same,"viability, T/C","second compound 1 µM, first compound 0.00316 µM",13.4%
same,"viability, T/C","second compound 1 µM, first compound 0.01 µM",14.9%
same,"viability, T/C","second compound 1 µM, first compound 0.0316 µM",12.6%
same,"viability, T/C","second compound 1 µM, first compound 0.1 µM",13.7%
same,"viability, T/C","second compound 1 µM, first compound 0.316 µM",16.1%
same,"viability, T/C","second compound 1 µM, first compound 1 µM",20.9%

# Reference: PubChem BioAssay AID2060889 (Molecular Pharmacology Branch, DTP, NCI, 2025)
